Reference: patent US8871741B2, “Inhibition of TNF-α induced activation of NFKB by pentosan polysulfate” (Icahn School of Medicine at Mount Sinai, priority 2010, dated 2014)
Entries after “also recorded” stand apart in the source; their conditions may differ.

Tests used:
MMP-9 = assay: Zymography of U937 cell supernatants, MMP-9; assay type: cell-based, human; conditions: U937 cells stimulated with 10 ng/ml TNF-α, 100 μg/ml PPS; P<0.01
Method: Human pro-monocytic U937 cells were obtained from American Type Culture Collection (Manassas, Va.) and grown in RPMI medium supplemented with 10% FBS. U937 cells were plated in six-well plates at a density of 5×10^6 cells/ml. The cells were then stimulated with 10 ng/ml TNF-α, in the presence or absence of either increasing concentrations of PPS (10-100 μg/ml) or heparin (100 μg/ml), and incubated at 37° C. for 3 hours. Following stimulation, cells were placed in 0.1% BSA-serum-free medium for 16-18 hours. The media was then collected, centrifuged, and supernatants were stored at −80° C. for the assessment of MMP activity. The cell number was determined by direct cell counting.
MMP activity in aortic extracts and conditioned media from monocytes was assessed, as previously described (Jacot T A, et al., Lab Invest. 1996; 75:791-79). Briefly, aortic segments were homogenized and extracted in RIPA buffer (25 mM Tris, pH 7.4, 150 mM KCl, 5 mM EDTA, 1% Nonidet P-40, 0.5% sodium deoxycholate, and 0.1% SDS). Insoluble material was precipitated by centrifugation, and soluble extracts were collected and stored at −20° C. for further analysis. For in vitro experiments, cell supernatants were centrifuged to remove cellular debris, and diluted appropriately to normalize for cell number. […]

[1] = system: MCP-1, RANTES, CXCL1, MIP-2, ICAM-1, and iNOS mRNA; assay: TNFα induced pro-inflammatory gene expression in proximal tubular cell line, real-time PCR; assay type: cell-based, mouse; conditions: PPS 200 μg/ml for 1 hour before TNFα 10 ng/ml, RNA 4 hours later
Method: A proximal tubular cell line obtained from mice transgenic for SV40 T antigen was grown in DMEM containing 10% FBS. For the measurement of TNFα-stimulated gene expression, 1×10^5 proximal tubular cells were transferred to each well of a 6-well-plate. After placing the cells in 0.1% FBS medium for 24 hours, 10 ng/ml of TNFα was added to test wells. Total RNA was isolated from all wells 4 hours later. MCP-1, RANTES, CXCL1, MIP-2, ICAM-1, and iNOS mRNA levels were determined by real-time PCR as described above and corrected by β-actin mRNA levels. TNFα stimulated MCP-1 and RANTES production and release into the medium was measured in TNFα (10 ng/ml) treated and control cells at 24 hours. The amount of MCP-1 or RANTES in the medium was measured by ELISA (Invitrogen Corporation (Carlsband, Calif.).
To determine the effect of PPS on TNFα induced upregulation of proinflammatory genes, proximal tubular cells were pre-treated with PPS (200 μg/ml) for 1 hour before the addition of TNFα (10 ng/ml). MCP-1, RANTES, CXCL1, MIP-2, ICAM-1, and iNOS mRNA levels were determined 4 hours later by real-time PCR. MCP-1 and RANTES production was also measured.

MMP-2 and MMP-9 = assay: Zymography of supernatants of human peripheral blood-derived macrophages; assay type: cell-based; conditions: TNF-α stimulated human peripheral blood-derived macrophages, 100 μg/ml PPS
Method: Human peripheral blood monocytes were isolated as previously described (Valone F H, Epstein L B. J Immunol. 1988; 141: 3945-3950), and maintained in medium 199 supplemented with 2% human serum for in vitro differentiation into macrophages (Camussi G, et al., J Exp Med. 1987; 166: 1390-1404).
(§1) MMP activity in aortic extracts and conditioned media from monocytes was assessed, as previously described (Jacot T A, et al., Lab Invest. 1996; 75:791-79). Briefly, aortic segments were homogenized and extracted in RIPA buffer (25 mM Tris, pH 7.4, 150 mM KCl, 5 mM EDTA, 1% Nonidet P-40, 0.5% sodium deoxycholate, and 0.1% SDS). Insoluble material was precipitated by centrifugation, and soluble extracts were collected and stored at −20° C. for further analysis. For in vitro experiments, cell supernatants were centrifuged to remove cellular debris, and diluted appropriately to normalize for cell number. Aortic extracts and conditioned media were then mixed with sample buffer (1% SDS, 0.08 M Tris pH 6.8, 4% glycerol, and 0.006% bromophenol blue), and loaded onto a 10% gelatin polyacrylamide gel, and processed as described (Jacot T A, et al., Lab Invest. 1996; 75:791-79). For reverse zymography, samples were loaded onto a 15% gelatin polyacrylamide gel containing 0.5% porcine gelatin and 6 μg recombinant gelatinase A, and processed as described (Elliot S J, et al., J Am Soc Nephrol. 1999; 10: 62-68).

monocytic cells = assay: Cell viability by trypan blue staining; assay type: cell-based, human
TIMP-1, -2, and -3 = assay: Reverse zymography of aortic extracts; assay type: in vivo, rabbit; conditions: PPS-treated WHHL rabbits, 75 days HC-diet
Method: as §1

podocytes = assay: Albumin permeability of podocyte monolayers (FITC-labeled BSA flux); assay type: cell-based; conditions: podocyte monolayer
Method: 1×10^5 podocytes were seeded onto collagen-coated transwell filters ([…] pore-size, Corning, N.Y., N.Y.) placed in the top chamber of each well of a 24-well plate. After cells reached confluence, some wells of cells were treated with TNFα (20 ng/ml), PPS (400 μg/ml), or PPS plus TNFα in 2% FBS medium for 8 hours. Then the medium from both the top and bottom chamber was completely removed, cells were washed twice with PBS and the top chamber was refilled with 0.2 ml 2% FBS medium supplemented with 0.5 mg/ml FITC-labeled BSA (Sigma Aldrich, St Louis, […].), while the bottom chamber was refilled with 0.6 ml 2% FBS medium supplemented with 0.5 mg/ml unlabeled BSA. At different time points, 100 μl aliquots were collected from the bottom chamber and fluorescence was measured by a fluorescence spectrophotometer (485 nm excitation, 535 nm emission). The concentration of FITC-BSA passing through the monolayer was determined by reference to a set of standard dilutions of FITC-BSA. The value of albumin flux through untreated monolayer was arbitrarily defined as 100%.

TNFα mRNA = assay: PCR of TNFα mRNA in kidney; assay type: in vivo, mouse; conditions: PPS treated 22 month-old diabetic mice, up to 40 PCR cycles
Method: mRNA levels were corrected by the levels of β-actin or GAPDH mRNA. The expression of TNFα mRNA in kidney was determined by both a real time and a regular PCR using the primer of forward, 5′-[…]-3′ (SEQ ID NO: 17), reverse, 5′-[…]-3′ (SEQ ID NO: 18). GAPDH and β-actin mRNA levels were measured in the same sample.

pentosan polysulfate [PPS]
MMP-9 activity, reduction by PPS treatment (MMP-9): 51.70%±10.77%
TNFα stimulation of MCP-1, RANTES, CXCL-1, MIP-2, ICAM-1 and iNOS mRNA expression [1]: largely prevented
effect on MMP production (MMP-2 and MMP-9): inhibitory effect
effect on cell viability (monocytic cells): no effect
activity of TIMP-1, -2, and -3 in aortic extracts (TIMP-1, -2, and -3): marked increase
inhibition of the flux of FITC-labeled BSA (podocytes; PPS 400 μg/ml plus TNFα 20 ng/ml, FIG. 18 legend): 34%
reduction of the TNFα-induced increase in FITC-labeled albumin passage (podocytes; PPS 400 μg/ml, TNFα 20 ng/ml): ~60%
TNFα mRNA expression in the kidneys (TNFα mRNA): completely prevented the upregulation; also recorded: absent
